According to EP0059606A1, “Benzothiopyrano(2,3-d)-v-triazole derivatives and pharmaceutical compositions containing them” (BEECHAM GROUP PLC, priority 1981, dated 1982):

Tested on: rat PCA
Experiment: Passive cutaneous anaphylaxis (PCA) in rats
Format: in vivo
Details: iv, 0 h, carrier PBS with NaHCO3, time 0 mins between administration and antigen challenge
Protocol: Serum containing heat labile homocytotropic antibody was raised in rats to crystallised ovalbumin (Grade 3 Sigma) by the Method of I. Mota (Immunology 7, 681 (1964)) using Bordetella pertussis vaccine ([…] Burroughs Welcome) as adjuvant.
Passive cutaneous anaphylaxis (PCA) was carried out by a method based on that of Ovary and Bier, (Proc. Soc. Exp. Bio. Med., 81; 584 (1952)) as modified by Goose and Blair (Immunology, 16, 749 (1969)) Male Sprague Dawley rats 230 - 340 gm were given 0.1 ml of each of six two fold serial dilutions of pooled antiserum in 0.9% saline (Polyfusor Boots) injected intradermally into separate sites on their shaved backs. 72 Hours later the rats were challenged by intravenous injection of 0.3 ml of a 1% solution of ovalbumin in isotonic saline buffered with 0.05M, pH 7.2 Sorenson Buffer (Bactohaemagglutination buffer Difco Laboratories), mixed with 0.2 ml of a 5% solution of Pontamine Sky Blue (6 BX C.l. 24410 Raymond A Lamb) in isotonic saline. The rats were killed after 20 minutes and the diameter of the blue wheals at the antibody injection sites was measured on the outer surface of the skin. The starting dilution of the serum was adjusted so that there was no response, after challenge, at the injection site of the highest dilution and a maximum response at the lowest dilutions. Typically, six twofold serial dilutions of the serum from 1/4 to 1/128 were used.
Compounds were tested for their ability to reduce the diameter of the wheals at those intradermal sites which in control animals gave less than maximum response. Each dose of the compounds was administered to six rats at a measured time prior to intravenous challenge with ovalbumin. Control groups of six rats were given the same volume (0.2 ml: 100g^-1)of carrier fluid at the same time prior to the challenge.
The results were calculated as follows: % inhibition of PCA = 100 (1 - a/b) where a = the sum of the diameters of the wheals produced in the test animal at the sites of antibody dilutions as used in control groups and b = the mean sum of the diameters of the wheals produced in the control group of animals at those antibody sites where at least five out of six of the animals gave less than maximum response. A typical variation in the control group of animals was SEM+ 6%.

## Cc1cc2sc3nn[nH]c3c(=O)c2cc1C [Example 6d, 6,7-Dimethyl-9-oxo-1H,9H-benzothiopyrano[2,3-d]-v-triazole]
  inhibition in vivo at 0.5 mg/kg: 65%
  inhibition in vivo at 1 mg/kg: 86%
  inhibition in vivo at 2 mg/kg: 90%

## COc1ccc2sc3nn[nH]c3c(=O)c2c1 [Example 8d, 7-Methoxy-9-oxo-lH,9H-benzothiopyrano[2,3-dl-v-triazole]
  inhibition in vivo at 0.5 mg/kg: 34%
  inhibition in vivo at 2 mg/kg: 58%

## O=c1c2ccccc2sc2nn[nH]c12 [Example 1f, 9-Oxo-1H,9H-benzothiopyrano[2,3-d]-v-triazole]
  inhibition in vivo at 1 mg/kg: 35%
  inhibition in vivo at 10 mg/kg: 90%

## O=C1c2ccccc2S(=O)(=O)c2nn[nH]c21 [Example 2b, 9-Oxo-1H,9H-benzothiopyrano[2,3-d]-v-triazole-4,4-dioxide]
  inhibition in vivo at 10 mg/kg: 68%

## O=c1c2ccccc2[s+]([O-])c2nn[nH]c12 (racemic) [Example 9b, 9-Oxo-lH,9H-benzothiopyrano[2,3-dl-v-triazole-4-oxide]
  inhibition in vivo at 0.5 mg/kg: 30%
  inhibition in vivo at 2 mg/kg: 61%

## Cc1ccc2c(c1)C(=O)c1[nH]nnc1S2(=O)=O [Example 4b, 7-Methyl-9-oxo-IH, 9H-benzothiopyrano[2,3-d]-v-triazole-4,4-dioxide]
  inhibition in vivo at 10 mg/kg: 65%

## Cc1cc2c(cc1C)S(=O)(=O)c1nn[nH]c1C2=O [Example 7b, 6,7-Dimethyl-9-oxo-lH,9H-benzothiopyrano[2,3-d]-v-triazole-4,4-dioxide]
  inhibition in vivo at 0.5 mg/kg: 56%
  inhibition in vivo at 1 mg/kg: 59%
  inhibition in vivo at 2 mg/kg: 74%

## Cc1ccc2sc3nn[nH]c3c(=O)c2c1 [Example 3d, 7-Nethyl-9-oxo-1H,9H-benzothiopyrano[2,3-d]-v-triazole]
  inhibition in vivo at 10 mg/kg: 42%
